Test results published in patent publication US7256172B1, “Method of treatment and agents useful for same” (The University of Melbourne, priority 1998, dated 2007).
No end group written: not given here.

Columns and labels:
mouse trachea = conditions: for increase in Isc in presence of indomethacin: cyclooxygenase inhibitor indomethacin; for change in Isc: luminally applied
Excerpt: Mice were killed by a lethal overdose of sodium pentobarbitone and the tracheae rapidly excised. The trachea was opened longitudinally through the ventral cartilage rings to make a fiat sheet. Each sheet of trachea was mounted between two perspex chambers so that the mucosal (luminal) and submucosal and bathed with warmed, oxygenated Krebs' solution, independently on each side. Electrodes in the chambers allowed recordings of transepithelial potential difference using an amplifier. The tissue was voltage clamped at 0 mV by passing a current from the amplifier via another set of electrodes in the chambers. The amount of current required to maintain voltage at 0 mV is defined as the short circuit current (Isc) and is conventionally used as a measure of all ionic fluxes across the preparation.
(§1) After an equilibration time of 30 min, compounds for testing and drugs to elucidate the mechanism of any changes in Isc to the test compounds were added to either side of the tracheal epithelium (ie to either bath). Compounds used for increasing Isc were PGE2, adenosine 5′-triphosphate (ATP), uridine 5′-triphosphate (UTP) and the PAR1-, PAR2- and PAR4-activating peptides, SFLLRN (SEQ ID NO:1) and SLIGRL (SEQ ID NO:2) and GYPGQY (SEQ ID NO:6), respectively. These stimulants were added cumulatively with controls for any time-dependent tachyphylaxis.

guinea-pig taenia coli = conditions: apamin (100 μM)
Description: 2 cm strips of teania coil with intact Auerbach's plexus, but which had been stripped of the mucosa, were suspended in Kreb's solution under 1 g passive tension, and contracted with histamine (1 μM) to induce active tension.

[1] = molecular target: mouse protease activated receptor 1 (PAR1), in mouse bronchus and trachea tissue (mouse) (UniProt P30558); assay: cell-based or functional assay
[2] = molecular target: PAR1-like receptor ("atypical" thrombin receptor) of human coronary artery endothelial cells (human); assay: cell-based or functional assay
monkey small bronchi = system: monkey small bronchi
Excerpt: The experimental details are similar to those for the mouse isolated bronchi. Briefly, approximately 2 mm long rings of small bronchi were mounted on wire hooks. In each trace, half log concentrations are not depicted for clarity.

[3] = system: human coronary artery rings; conditions: for maximum (Rmax % contraction reversal): endothelium-intact, control; for relaxation after removal of the endothelium: endothelium-denuded
[4] = system: human bronchial epithelium; conditions: after amiloride
Description: Human airways were obtained from discarded sections of lungs of patients undergoing lobectomy operations at the Royal Melbourne Hospital, Melbourne, Australia usually for lung cancer. The dissection and set up were as described above for the mouse trachea.
as §1

PAR1 = PAR1 (Homo sapiens, UniProt P25116); conditions: concentrations up to 1 mM, human platelets; cited from earlier work
[5] = molecular target: guinea-pig protease activated receptor 2 (PAR2), in guinea-pig bronchus tissue (guinea-pig); assay: cell-based or functional assay
[6] = molecular target: T1, mouse protease activated receptor 2 (PAR2), in mouse bronchus and trachea tissue (mouse) (UniProt P55086); assay: cell-based or functional assay
T1 sequence (looked up): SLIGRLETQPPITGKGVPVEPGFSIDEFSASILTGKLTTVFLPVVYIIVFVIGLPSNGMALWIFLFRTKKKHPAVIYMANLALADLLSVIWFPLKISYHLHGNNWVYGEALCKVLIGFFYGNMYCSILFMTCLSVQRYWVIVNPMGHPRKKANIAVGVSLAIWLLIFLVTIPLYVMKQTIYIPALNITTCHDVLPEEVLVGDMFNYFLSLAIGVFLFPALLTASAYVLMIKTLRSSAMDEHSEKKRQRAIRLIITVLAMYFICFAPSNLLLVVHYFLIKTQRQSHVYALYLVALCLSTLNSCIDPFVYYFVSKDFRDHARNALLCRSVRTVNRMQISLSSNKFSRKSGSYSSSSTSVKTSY

[7] = molecular target: T2, rat protease activated receptor 2 (PAR2), in rat airway tissue (rat) (UniProt Q63645); assay: cell-based or functional assay
T2 sequence (looked up): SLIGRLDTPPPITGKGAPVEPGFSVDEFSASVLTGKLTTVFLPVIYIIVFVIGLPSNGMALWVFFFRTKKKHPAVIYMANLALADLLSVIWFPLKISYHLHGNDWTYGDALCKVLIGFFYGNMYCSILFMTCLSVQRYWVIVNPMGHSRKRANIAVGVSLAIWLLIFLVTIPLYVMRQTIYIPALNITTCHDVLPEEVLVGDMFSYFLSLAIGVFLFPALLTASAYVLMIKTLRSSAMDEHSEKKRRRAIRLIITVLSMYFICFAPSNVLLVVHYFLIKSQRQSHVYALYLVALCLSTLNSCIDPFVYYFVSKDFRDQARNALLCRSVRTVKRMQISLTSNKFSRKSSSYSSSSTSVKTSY

mouse bronchial rings = conditions: for response of epithelium-intact bronchi: contracted to approximately 40% Fmax with carbachol; for response in presence of cyclooxygenase inhibitors: indomethacin (3 μM) or aspirin (100 μM)
Excerpt: (§2) The right and left main bronchi and their first order branches of specific pathogenfree (SPF) Balb/c mice (15–20 g; either sex), Hartley tricolour guinea-pigs (300–400 g; male) and Sprague-Dawley rats (200–350 g; either sex), all killed by either cervical dislocation or overdosed (i.p.) with sodium pentobarbitone, were cleared of surrounding connective tissue, nerves and blood vessels under a dissecting microscope and placed in cold, carbogenated (95% v/v O2,5% v/v CO2) Krebs solution (Kemp and Cocks, 1997). Human airway preparations (0.5–1 mm in external diameter) were dissected from lungs of cancer patients undergoing thoracotomy at The Royal Melbourne Hospital, Melbourne, Australia. The epithelium was removed from some bronchi either by mechanical abrasion of the luminal surface (guinea-pig) or by brief, gentle intraliminal flushing of the airways with Krebs containing 0.1% v/v Triton-X100 (mouse and rat). In each case, removal of the epithelium was verified histologically in 8 μm formalin-fixed, paraffin sections stained with haemotoxylin and eosin. Ring segments (approximately 2 mm long) of bronchi and bronchioles were mounted in Krebs (37° C.) on stainless steel wires (40 μm) in dual channel (5 ml) Mulvany-Halpern myographs (JP Trading, Aarhus, Denmark) to record changes in isometric force (Kemp and Cocks, 1997). After equilibration at a passive force between 0.2 g and 0.3 g, tissues were contracted to their maximum levels of active force (Fm.),) with acetylcholine (30 μM), thoroughly washed with Krebs and allowed to return to baseline. Various drugs or their vehicles were then added and 30 min later all tissues were contracted to approximately 40% Fmax with titrated concentrations of carbachol (10–500 nM). The L-type voltage-operated Ca^2+ channel inhibitor, nifedipine (0.3 μM) was added to all mouse and rat tissues after obtaining Fmax to control characteristic phasic contractile activity with carbachol.
If no response occurred the tissues were then exposed to cumulative concentrations of either SLIGRL—NH2 (SEQ ID NO:2) or SFLLRN—NH2 (SEQ ID NO:1) (0.1–30 μM).
(§3) Results are presented as mean±s.e mean and pEC50 (sensitivity) values were calculated by fitting concentration-response curves to a four parameter logistic function (Kemp and Cocks, 1997) using Graphpad Prism (version 2.0). Statistical comparison of mean pEC50 and maximum response (Rmax) values were compared by two-tailed unpaired Student's t-tests or one way analysis of variance (ANOVA) with Tukey-Kramer's t-tests for multiple comparisons. P<0.05 was accepted as significant. Unless specified, all averaged data are from n>5 experiments.
Mouse bronchus preparations were carefully mounted horizontally on fine (40 μm) stainless steel wires attached to the jaws of a Mulvany-Halpem myograph. After 60 min at 37° C., all rings were stretched to 0.5 g passive force, which had been determined in preliminary experiments to be optimal, and allowed to recover from that stretch for a further 30 min. Maximum contraction (Fmax) in each tissue was then determined with exogenously applied acetylcholine (ACh; 30 μM) followed by washout. A further 30 min equilibration time was allowed before the tissues were actively contracted to between 20% and 60% of their individual Fm.” values with titrated concentrations of carbachol (10–100 nM). […] In some cases, tissues were treated with a range of drugs prior to contraction to approximately […] Fmax. These included the cyclooxygenase inhibitors indomethacin and aspirin, the nitric oxide (NO) synthase inhibitor N′-nitro-L-(L-NOARG), the NO scavenger oxyhaemoglobin (Hb0), and the L-voltage-operated Cat' channel inhibitor nifedipine.
After an initial passive stretch to 0.5 g (Ti) and recovery, each ring was contracted with acetylcholine (Ach; 30 μM). The contraction was taken as the tissue maximum and referred to as Fmax.

human distal colon = system: human distal colon
Description: Human distal colon strips obtained at bowel resection were suspended at 1 g passive isometric force and contracted with substance P (30 μM) to maintain a steady level of active tension.

[8] = system: isolated human bronchioles
Description: Small (500 μm) bronchioles were carefully dissected from discarded sections of human left lung which had been excised at surgery from two male lung cancer patients (Royal Melbourne Hospital, Melbourne, Australia).
Dissection of these bronchioles required a fine-dissecting microscope and an assistant to continually flood the preparation with cold oxygenated Krebs solution to remove air bubbles and keep the tissue viable. Bronchioles approximately 2 mm in length were then mounted on […] diameter stainless wires in a Krebs solution-filled myograph chamber, as described for the mouse bronchus preparation above.

rat isolated bronchi = system: rat isolated bronchi
Excerpt: as §2
as §3, with “All cumulative responses (relaxations and contractions) were normalised as percentages of the initial level of active force to carbachol. Results” for “Results”

Chain of mouse protease activated receptor 1 (PAR1), in mouse bronchus and trachea tissue (mouse) (P30558 42-430): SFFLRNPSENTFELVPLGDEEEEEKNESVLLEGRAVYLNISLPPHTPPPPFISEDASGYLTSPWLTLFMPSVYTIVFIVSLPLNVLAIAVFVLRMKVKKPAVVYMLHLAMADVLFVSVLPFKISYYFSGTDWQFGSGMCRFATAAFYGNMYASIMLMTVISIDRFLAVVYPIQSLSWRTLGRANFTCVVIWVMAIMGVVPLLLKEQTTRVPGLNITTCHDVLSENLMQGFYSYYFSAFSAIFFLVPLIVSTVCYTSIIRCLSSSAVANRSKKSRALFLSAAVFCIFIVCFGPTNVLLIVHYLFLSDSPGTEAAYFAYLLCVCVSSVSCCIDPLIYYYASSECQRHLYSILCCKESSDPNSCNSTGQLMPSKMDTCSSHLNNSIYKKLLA
Chain of PAR1 (P25116 22-425): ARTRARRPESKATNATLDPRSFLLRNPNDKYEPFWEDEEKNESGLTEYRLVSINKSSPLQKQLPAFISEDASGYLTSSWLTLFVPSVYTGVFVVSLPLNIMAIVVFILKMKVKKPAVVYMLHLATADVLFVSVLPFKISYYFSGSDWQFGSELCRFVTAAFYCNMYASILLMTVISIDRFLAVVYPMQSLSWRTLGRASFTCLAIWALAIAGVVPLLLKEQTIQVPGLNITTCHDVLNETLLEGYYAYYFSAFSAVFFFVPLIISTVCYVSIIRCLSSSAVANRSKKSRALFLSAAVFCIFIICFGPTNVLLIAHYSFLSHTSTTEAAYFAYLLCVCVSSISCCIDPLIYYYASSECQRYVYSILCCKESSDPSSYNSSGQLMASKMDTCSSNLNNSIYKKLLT

Nc1ncnc2c1ncn2[C@@H]1O[C@H](COP(=O)(O)OP(=O)(O)OP(=O)(O)O)[C@@H](O)[C@H]1O [ATP, adenosine 5′-triphosphate]
increase in Isc in presence of indomethacin (mouse trachea): unaffected | change in Isc (mouse trachea): rapid initial rise in Isc usually followed by some degree of recovery until a steady plateau was reached | relaxation in presence of apamin (guinea-pig taenia coli): no relaxation

SFLLRN-NH2 (human PAR1 tethered ligand sequence, thrombin receptor-activating peptide)
pEC50, relaxation of carbachol-contracted mouse bronchial rings [1]: 5.6 -log M | pEC50, relaxation of first generation branches of the mouse main bronchi [1]: 5.5 -log M | pEC50, relaxation of human coronary artery after desensitisation to thrombin and trypsin [2]: 6.4 -log M | pEC50, relaxation of human coronary artery, untreated tissue [2]: 7 -log M | pEC50, relaxation of precontracted human coronary artery segments [2]: 6.9 -log M

SLIGKV-NH2
effect on monkey small bronchi (monkey small bronchi): smooth muscle relaxing effects | maximum (Rmax % contraction reversal) [3]: 39.9±11.0% | change in Isc [4]: relatively poor response

SLIGKVD-NH2
activation of PAR1 (PAR1): does not activate PAR1

SLIGRL-NH2 (mouse PAR2 tethered ligand sequence, PAR2 activating peptide)
pEC50, epithelium-dependent relaxation of guinea-pig isolated bronchi [5]: 5.4 -log M | pEC50 (sensitivity), relaxation of carbachol-contracted mouse bronchial rings [6]: 5.6 -log M | pEC50, relaxation of first generation branches of the mouse main bronchi [6]: 5.1 -log M | pEC50, epithelium-dependent relaxation of rat isolated bronchi [7]: 5.5 -log M | pEC50, relaxation of rat bronchioles [7]: 5.1 -log M

alpha-thrombin (bovine serum, Sigma) (from UniProt P00735 318-625) (enzyme)
pEC50 (sensitivity), endothelium-dependent relaxation of U46619-contracted human coronary artery rings [2]: 2.5 log U/ml

prostaglandin E2 [PGE2, reference compound]
increase in Isc in presence of indomethacin (mouse trachea): unaffected | change in Isc (mouse trachea): rapid initial rise in Isc usually followed by some degree of recovery until a steady plateau was reached | response of epithelium-intact bronchi (mouse bronchial rings): potent and maximum relaxation | relaxation after removal of the epithelium (mouse bronchial rings; epithelium removed with 0.1% v/v Triton X-100): could still sensitively relax | maximum relaxation (Rmax) (mouse bronchial rings; main bronchi with epithelium, % of initial force to carbachol): 100% | sensitivity (pEC50) (mouse bronchial rings; main bronchi with epithelium, contracted with carbachol): 8.2±0.1 −log M

thrombin
response of human distal colon (human distal colon): did not result in relaxation | response of human bronchioles [8]: activity dependent relaxation that was reversed by indomethacin | response of epithelium-intact bronchi (mouse bronchial rings): only poor indomethacin sensitive relaxation at high concentrations | response in presence of cyclooxygenase inhibitors (mouse bronchial rings): converted to contractions by indomethacin | response of rat bronchial rings (rat isolated bronchi): small relaxation | effect on monkey small bronchi (monkey small bronchi): smooth muscle relaxing effects | relaxation after removal of the endothelium [3]: abolished | maximum (Rmax % contraction reversal) [3]: 88.9±4.9%

trypsin
response of human bronchioles [8]: activity dependent relaxation that was reversed by indomethacin | response of epithelium-intact bronchi (mouse bronchial rings): activity-dependent relaxation | response in presence of cyclooxygenase inhibitors (mouse bronchial rings): blocked by indomethacin | effect on monkey small bronchi (monkey small bronchi): smooth muscle relaxing effects | relaxation after removal of the endothelium [3]: abolished | maximum (Rmax % contraction reversal) [3]: 88.1±2.9%

trypsin (bovine pancreas, Worthington Biochem) (from UniProt P00760 24-246) (enzyme)
pEC50 (sensitivity), endothelium-dependent relaxation of U46619-contracted human coronary artery rings [2]: 1.7 log U/ml
